# Experimental data taken from ChEMBL document CHEMBL1124016, “Antihypertensive activity in a series of 1-piperazino-3-phenylindans with potent 5-HT2-antagonistic activity” (J Med Chem, 1988).
# pIC50: −log10 of the molar value.
# Assays:
# Mus musculus = species on record: Mus musculus; assay: Inhibition of methyl phenidate induced stereotyped gnawing in mice; format: functional
# Rattus norvegicus [1] = assay: Percent reduction of systolic arterial blood pressure(SAP) in spontaneously hypertensive rat after 10 min at intraperitoneal administration of 5 mg/kg; format: functional
# [2] = biological target: T1, Adrenergic receptor alpha-1 (Rattus norvegicus, UniProt P15823+P23944+P43140); assay: Inhibition of [3H]prazosin binding to alpha-1 adrenergic receptor from rat cortical membranes; format: cell membranes, Membrane
# T1 sequence (P15823 whole entry): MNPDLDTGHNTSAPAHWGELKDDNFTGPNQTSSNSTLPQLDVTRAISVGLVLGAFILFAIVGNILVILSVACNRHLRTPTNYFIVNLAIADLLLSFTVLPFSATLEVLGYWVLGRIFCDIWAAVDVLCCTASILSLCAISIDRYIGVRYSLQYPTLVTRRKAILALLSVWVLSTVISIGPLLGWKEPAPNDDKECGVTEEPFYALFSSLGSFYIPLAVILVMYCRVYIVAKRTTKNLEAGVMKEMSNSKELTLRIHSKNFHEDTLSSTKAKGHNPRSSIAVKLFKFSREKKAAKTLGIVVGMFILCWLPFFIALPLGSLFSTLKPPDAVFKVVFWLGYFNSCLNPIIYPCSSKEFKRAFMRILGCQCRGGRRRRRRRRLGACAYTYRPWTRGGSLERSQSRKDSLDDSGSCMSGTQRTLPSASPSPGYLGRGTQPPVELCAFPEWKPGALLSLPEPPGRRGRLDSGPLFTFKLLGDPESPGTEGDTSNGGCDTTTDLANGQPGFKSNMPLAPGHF
# T1 sequence (P23944 whole entry): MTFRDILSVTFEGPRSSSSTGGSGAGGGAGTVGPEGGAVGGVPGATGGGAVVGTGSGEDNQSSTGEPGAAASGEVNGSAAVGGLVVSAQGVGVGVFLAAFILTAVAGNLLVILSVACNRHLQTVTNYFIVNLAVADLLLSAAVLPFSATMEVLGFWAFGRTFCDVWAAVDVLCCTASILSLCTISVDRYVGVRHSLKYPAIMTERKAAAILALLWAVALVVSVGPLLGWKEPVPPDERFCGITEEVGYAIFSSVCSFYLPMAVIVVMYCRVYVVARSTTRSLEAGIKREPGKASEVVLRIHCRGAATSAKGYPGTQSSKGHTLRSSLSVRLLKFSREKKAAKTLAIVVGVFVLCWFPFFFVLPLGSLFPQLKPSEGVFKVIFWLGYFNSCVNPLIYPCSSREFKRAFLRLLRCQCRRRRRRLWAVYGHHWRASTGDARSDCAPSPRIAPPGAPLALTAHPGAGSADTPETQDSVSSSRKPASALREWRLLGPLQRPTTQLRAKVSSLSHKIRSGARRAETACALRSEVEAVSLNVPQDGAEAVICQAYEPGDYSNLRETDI
# T1 sequence (P43140 whole entry): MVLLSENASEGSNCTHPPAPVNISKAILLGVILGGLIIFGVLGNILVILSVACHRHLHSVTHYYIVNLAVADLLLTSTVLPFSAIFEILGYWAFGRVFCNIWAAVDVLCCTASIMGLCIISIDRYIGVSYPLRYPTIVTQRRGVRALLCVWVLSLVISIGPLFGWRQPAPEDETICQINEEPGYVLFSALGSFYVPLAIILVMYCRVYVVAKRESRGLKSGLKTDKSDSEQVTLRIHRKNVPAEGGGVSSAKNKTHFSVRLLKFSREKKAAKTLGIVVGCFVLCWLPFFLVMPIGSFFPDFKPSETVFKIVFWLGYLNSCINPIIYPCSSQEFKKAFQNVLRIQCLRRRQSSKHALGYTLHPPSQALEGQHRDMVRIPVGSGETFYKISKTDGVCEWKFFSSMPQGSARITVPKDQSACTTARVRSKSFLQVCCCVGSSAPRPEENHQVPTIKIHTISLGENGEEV
# D(2) dopamine receptor = D(2) dopamine receptor (Rattus norvegicus, UniProt P61169); assay: Inhibition of [3H]spiperone binding to Dopamine receptor D2 from rat striatal membranes; format: cell membranes, Membrane
# Chain of D(2) dopamine receptor (P61169 whole entry): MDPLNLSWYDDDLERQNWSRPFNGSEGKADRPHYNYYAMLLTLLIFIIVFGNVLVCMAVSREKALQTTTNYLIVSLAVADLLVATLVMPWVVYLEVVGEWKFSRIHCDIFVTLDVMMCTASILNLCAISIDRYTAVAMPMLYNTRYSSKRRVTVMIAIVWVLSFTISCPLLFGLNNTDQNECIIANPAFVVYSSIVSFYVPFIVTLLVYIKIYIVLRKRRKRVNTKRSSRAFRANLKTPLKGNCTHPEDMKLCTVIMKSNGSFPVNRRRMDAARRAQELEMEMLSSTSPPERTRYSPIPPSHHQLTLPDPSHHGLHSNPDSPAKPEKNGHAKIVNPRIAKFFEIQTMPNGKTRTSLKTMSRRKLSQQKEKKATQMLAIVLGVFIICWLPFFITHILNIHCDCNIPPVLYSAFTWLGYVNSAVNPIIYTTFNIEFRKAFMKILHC
# Rattus norvegicus [3] = assay: Percent reduction of diastolic arterial blood pressure(DAP) in spontaneously hypertensive rat after 10 min at intraperitoneal administration of 5 mg/kg; format: functional
# [4] = biological target: Serotonin 2 (5-HT2) receptor (Rattus norvegicus, UniProt P30994+P08909+P14842); assay: Inhibition of [3H]spiperone binding to 5-hydroxytryptamine 2 receptor from rat cortical membranes; format: cell membranes, Membrane
# Rattus norvegicus [5] = species on record: Rattus norvegicus; assay: Ratio of phenylephrine ED50/ 5-HT ED50; format: functional
# Rattus norvegicus [6] = assay: Inhibition of phenylephrine induced pressor response in pithed rats (following i.v. administration of […]); format: functional; conditions: route intravenous
# Rattus norvegicus [7] = assay: Inhibition of 5-HT induced pressor response in pithed rats, after intravenous administration, activity is expressed as ED50; format: functional
# Rattus norvegicus [8] = assay: Inhibition of 5-HT induced pressor response in pithed rats, after intravenous administration; format: functional
# Rattus norvegicus [9] = species on record: Rattus norvegicus; assay: Inhibition of L-5-HTP (L-5-hydroxytryptophan) induced head twitches in rat; format: functional
# Rattus norvegicus [10] = assay: Inhibition of 5-HT induced pressor response in pithed rats, after intravenous administration of 0.02 mg/kg; format: functional
# [11] = biological target: Sodium-dependent dopamine transporter (Rattus norvegicus, UniProt P23977); assay: In vitro inhibition of [3H]dopamine uptake in rat brain synaptosomes; format: subcellular
# Chain of Sodium-dependent dopamine transporter (P23977 whole entry): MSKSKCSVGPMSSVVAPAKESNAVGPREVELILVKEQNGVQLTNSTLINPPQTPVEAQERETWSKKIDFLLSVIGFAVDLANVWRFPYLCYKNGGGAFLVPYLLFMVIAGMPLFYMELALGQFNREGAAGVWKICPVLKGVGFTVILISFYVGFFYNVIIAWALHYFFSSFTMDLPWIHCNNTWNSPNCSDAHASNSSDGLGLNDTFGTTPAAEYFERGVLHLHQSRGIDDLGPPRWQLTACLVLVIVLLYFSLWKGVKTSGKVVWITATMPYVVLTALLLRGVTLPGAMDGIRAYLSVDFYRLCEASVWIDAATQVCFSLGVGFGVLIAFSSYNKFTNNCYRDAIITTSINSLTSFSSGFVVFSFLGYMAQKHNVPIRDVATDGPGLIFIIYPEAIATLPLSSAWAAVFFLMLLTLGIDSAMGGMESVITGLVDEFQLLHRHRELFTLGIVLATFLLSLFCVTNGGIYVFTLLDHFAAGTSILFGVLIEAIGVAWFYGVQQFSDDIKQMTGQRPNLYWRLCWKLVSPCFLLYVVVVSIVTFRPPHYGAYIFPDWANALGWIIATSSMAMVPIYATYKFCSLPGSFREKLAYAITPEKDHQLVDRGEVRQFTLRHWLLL
# [12] = biological target: Norepinephrine transporter (Rattus norvegicus, UniProt Q9WTR4); assay: In vitro inhibition of [3H]norepinephrine uptake in rat brain synaptosomes; format: subcellular
# Chain of Norepinephrine transporter (Q9WTR4 whole entry): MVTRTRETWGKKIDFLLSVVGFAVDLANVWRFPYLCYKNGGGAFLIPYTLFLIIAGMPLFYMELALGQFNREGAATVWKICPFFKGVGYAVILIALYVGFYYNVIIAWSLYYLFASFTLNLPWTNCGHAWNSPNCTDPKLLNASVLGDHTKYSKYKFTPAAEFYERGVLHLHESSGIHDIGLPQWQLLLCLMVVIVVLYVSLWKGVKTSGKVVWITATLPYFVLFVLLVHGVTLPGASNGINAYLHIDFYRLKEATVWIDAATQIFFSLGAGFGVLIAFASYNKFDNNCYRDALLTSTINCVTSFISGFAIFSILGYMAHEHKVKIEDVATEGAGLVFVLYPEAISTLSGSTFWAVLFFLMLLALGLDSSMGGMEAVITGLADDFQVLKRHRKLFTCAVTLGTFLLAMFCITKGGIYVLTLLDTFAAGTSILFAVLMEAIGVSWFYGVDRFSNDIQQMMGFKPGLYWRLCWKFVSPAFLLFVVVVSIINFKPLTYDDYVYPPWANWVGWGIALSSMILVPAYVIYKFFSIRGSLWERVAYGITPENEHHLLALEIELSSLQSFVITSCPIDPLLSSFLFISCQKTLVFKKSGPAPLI
# [13] = biological target: Sodium-dependent serotonin transporter (Rattus norvegicus, UniProt P31652); assay: In vitro inhibition of [3H]5-HT transporter uptake in rat brain synaptosomes; format: subcellular
# Chain of Sodium-dependent serotonin transporter (P31652 whole entry): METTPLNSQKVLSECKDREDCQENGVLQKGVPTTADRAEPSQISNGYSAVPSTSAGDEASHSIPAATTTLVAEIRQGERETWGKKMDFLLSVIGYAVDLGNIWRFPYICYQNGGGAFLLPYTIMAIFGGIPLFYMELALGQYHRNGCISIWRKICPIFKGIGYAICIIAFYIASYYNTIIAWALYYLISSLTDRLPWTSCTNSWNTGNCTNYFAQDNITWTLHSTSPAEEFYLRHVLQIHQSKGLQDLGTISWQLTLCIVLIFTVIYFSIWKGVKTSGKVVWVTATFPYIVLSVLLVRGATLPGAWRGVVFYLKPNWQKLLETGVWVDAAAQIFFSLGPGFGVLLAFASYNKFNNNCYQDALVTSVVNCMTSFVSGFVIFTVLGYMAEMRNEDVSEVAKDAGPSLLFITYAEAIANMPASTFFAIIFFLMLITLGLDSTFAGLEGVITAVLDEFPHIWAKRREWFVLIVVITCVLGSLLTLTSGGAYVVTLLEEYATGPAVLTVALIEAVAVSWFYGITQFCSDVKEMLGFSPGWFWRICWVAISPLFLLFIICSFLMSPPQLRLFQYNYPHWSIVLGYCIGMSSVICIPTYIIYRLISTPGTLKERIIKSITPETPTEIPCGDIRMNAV
# Rattus norvegicus [14] = assay: Percent reduction of blood pressure in spontaneously hypertensive rat after 10 min at intraperitoneal administration of 5 mg/kg; format: functional
# [15] = Rattus norvegicus, read-out: ED50
SMILES,IC50 [4] [µM],ED50 (Mus musculus) [µmol/kg],Reduction (Rattus norvegicus [1]) [%],IC50 [2] [µM],pIC50 (D(2) dopamine receptor),Ratio (Rattus norvegicus [5]),Change (Rattus norvegicus [6]) [%],ED50 (Rattus norvegicus [7]) [µmol/kg],Reduction (Rattus norvegicus [3]) [%],ED50 (Rattus norvegicus [8]) [µmol/kg],ED50 (Rattus norvegicus [9]),Change (Rattus norvegicus [10]) [%],pIC50 [11],pIC50 [12],pIC50 [13],also measured
O=C(O)/C=C\C(=O)O.O=C(O)/C=C\C(=O)O.O=C1NCCN1CCN1CCN([C@H]2C[C@H](c3ccc(F)cc3)c3ccc(F)cc32)CC1,0.32,> 61,,0.9,5.35,,11,,,0.93,20 µmol/kg,2,7.17,7.77,5.66,Increase (Rattus norvegicus [1]): 6%; Increase (Rattus norvegicus [3]): 4%
Cl.Cl.O=c1[nH]c2ccccc2c(=O)n1CCN1CCN(C2CC(c3ccc(F)cc3)c3ccccc32)CC1 (stereo not given),0.0034,> 70,,0.0055,7.22,7.7,-42,0.77,,0.1,,-35,,,,ED50 (Rattus norvegicus [9]; [15]): 4.4 µmol/kg; Reduction (Rattus norvegicus [14]): -22%
Fc1ccc([C@H]2C[C@H](N3CCNCC3)c3ccccc32)cc1.O=C(O)/C=C\C(=O)O.O=C(O)/C=C\C(=O)O,0.18,> 76,,0.54,5.07,,41,,,,,-3,6.66,6.85,6.40,ED50 (Rattus norvegicus [9]; [15]): 13 µmol/kg; Reduction (Rattus norvegicus [14]): -2%
O.OC1=NCCN1CCN1CCN(C2CC(c3ccc(O)cc3)c3ccccc32)CC1 (stereo not given),0.31,> 98,-6,0.56,5.40,,22,,-6,,> 49 µmol/kg,-5,,,,
O.O=C1NCCN1CCN1CCN([C@H]2C[C@H](c3ccc(F)cc3)c3ccccc32)CC1,0.57,> 97,,0.54,4.89,,53,,,2.7,,-11,6.85,7.16,5.01,ED50 (Rattus norvegicus [9]; [15]): > 97 µmol/kg; Reduction (Rattus norvegicus [14]): 3%
O=C1NCCN1CCN1CCN(C2CC(c3ccc(F)cc3)c3ccccc32)CC1 (stereo not given),0.0042,> 98,-33,0.033,6.03,129,,3.1,-43,,,,,,,
CN1CCN(CCN2CCN([C@H]3C[C@H](c4ccc(F)cc4)c4ccc(F)cc43)CC2)C1=O,0.41,> 91,,1.3,5.07,,72,,-1,,> 45 µmol/kg,-6,,,,Increase (Rattus norvegicus [1]): 1%
O=C1NCCN1CCN1CCN(C2CCc3ccccc32)CC1 (stereo not given),5.1,> 127,,,4.21,,,,,,> 8 µmol/kg,,,,,Increase (Rattus norvegicus [1]): 5%; Increase (Rattus norvegicus [3]): 6%
O=C1NCCN1CCN1CCN(C2CC(c3ccc(F)cc3)c3ccc(F)cc32)CC1 (stereo not given),0.0065,> 47,-13,0.024,6.70,153,,2.6,-19,,,,,,,
O=C1NCCN1CCN1CCN([C@@H]2C[C@@H](c3ccc(F)cc3)c3ccccc32)CC1 (stereo in doubt; 27) [IRINDALONE],0.52,,,0.67,5.34,,,,,,>196 µM/kg,,7.00,7.36,< 4.00,Change (Rattus norvegicus [6]; […]): 33%; Change (Rattus norvegicus [10]; 0.02 mg/kg): -3%; Reduction (Rattus norvegicus [14]; 5 mg/kg): -3%
O=C1NCCN1CCN1CCN([C@@H]2C[C@@H](c3ccc(F)cc3)c3ccccc32)CC1 (stereo in doubt; (+)2) [IRINDALONE],0.0034,> 72,,0.026,,171,,0.77,,0.0045,0.56 µM/kg,,4.60,4.66,4.85,Change (Rattus norvegicus [6]; […]): -42%; Change (Rattus norvegicus [10]; 0.02 mg/kg): -85%; Reduction (Rattus norvegicus [14]; 5 mg/kg): -48%

# Continued, in another order:
IC50 [4] [µM],SMILES,ED50 (Mus musculus) [µmol/kg],Reduction (Rattus norvegicus [1]) [%],IC50 [2] [µM],pIC50 (D(2) dopamine receptor),Ratio (Rattus norvegicus [5]),Change (Rattus norvegicus [6]) [%],ED50 (Rattus norvegicus [7]) [µmol/kg],Reduction (Rattus norvegicus [3]) [%],ED50 (Rattus norvegicus [8]) [µmol/kg],ED50 (Rattus norvegicus [9]),Change (Rattus norvegicus [10]) [%],pIC50 [11],pIC50 [12],pIC50 [13],also measured
0.0048,CC(C)N1CCN(CCN2CCN(C3CC(c4ccc(F)cc4)c4ccc(F)cc43)CC2)C1=O.Cl.Cl (stereo not given),> 73,-5,0.028,7.46,,,,,,,,,,,Increase (Rattus norvegicus [3]): 0%
0.0029,O.O=c1[nH]c2ccccc2c(=O)n1CCN1CCN(C2CC(c3ccc(F)cc3)c3ccc(F)cc32)CC1 (stereo not given),> 79,-29,0.0053,7.72,13,-57,0.43,-46,0.032,2.3 µmol/kg,-52,,,,
0.13,Cl.Cl.O=C1OCCN1CCN1CCN(C2CC(c3ccc(F)cc3)c3ccccc32)CC1 (stereo not given),> 83,-15,,,,,,-19,,,,,,,
0.0056,Cl.Cl.OC1=NCCN1CCCN1CCN(C2CC(c3ccc(F)cc3)c3ccc(F)cc32)CC1 (stereo not given),55,-12,0.012,7.34,87,,2.7,-19,,2 µmol/kg,,,,,
0.043,CN1CCN([C@H]2C[C@H](c3ccc(F)cc3)c3ccc(F)cc32)CC1,42,,0.085,,,5,,,,,-43,7.09,7.55,6.21,ED50 (Rattus norvegicus [9]; [15]): 0.49 µmol/kg; Reduction (Rattus norvegicus [14]): -5%
0.0049,CN1CCN([C@@H]2C[C@@H](c3ccc(F)cc3)c3ccc(F)cc32)CC1,2.5,,0.0093,,,-48,,,,,-79,5.77,4.92,5.41,ED50 (Rattus norvegicus [9]; [15]): 0.13 µmol/kg; Reduction (Rattus norvegicus [14]): -28%
0.0084,OCCN1CCN([C@@H]2C[C@@H](c3ccc(F)cc3)c3ccc(C(F)(F)F)cc32)CC1 (racemic) [TEFLUDAZINE],0.071,-18,0.017,7.80,69,,2.4,-24,0.035,,,,,,
